In patent US20240131028A1, “CHEMOVACCINATION AGAINST PLASMODIUM INFECTION WITH SELECTIVE PLASMEPSIN X INHIBITORS” (Merck Sharp & Dohme LLC, priority 2021, published 2024):

System: ring stage parasites (Pf)
Test: Parasite lactate dehydrogenase (LDH) growth assay (Parasite Assay, PfLDH Assay)
Type: cell-based, P. falciparum
Details: Table 3; 72 hours growth, LDH readout; read-out: EC50
Experimental: The parasite stock was maintained at 4% haematocrit in RPMI-Hepes media buffered with sodium bicarbonate and supplemented with 5% heat inactivated human serum and 0.5% albumax. […] On the day of assay set up, a blood smear of the parasite culture was Giemsa stained and counted. The parasitemia was adjusted to 0.7% rings and the haematocrit was diluted to 2% in RPMI-Hepes media buffered with sodium bicarbonate and supplemented with 5% heat inactivated human serum and 0.5% albumax. 30 μl of diluted parasites are then added into 10 μl of media+compound in pre-prepared Greiner TC assay plates. Parasite assay plates were placed in gassed humidified boxes in single layer and allowed to incubate at 37° C. for 72 hours. After 72 hours growth, assay plates were sealed with parafilm and frozen flat, in single file at −80° C. overnight. On the following day, assay plates were allowed to thaw at room temperature for 4 hours to which an LDH assay was performed to measure parasite growth.

SMILES	EC50 [nM]
CCC1(CC)CC(=O)N(CC2C(C(=O)N[C@H]3C[C@@H](C(F)(F)F)Oc4ccccc43)C2(F)F)C(=N)N1 (single isomer, unassigned) [Example 17A]	47
CCC1(CC)CC(=O)N(CC2C(C(=O)N[C@H]3C[C@@H](C(F)(F)F)Oc4ccccc43)C2(F)F)C(=N)N1 (single isomer, unassigned) [Example 17B]	20
CCC1(CC)CC(=O)N(C[C@H]2C(C)[C@@H]2C(=O)N[C@H]2CC(C)(C)Oc3ccccc32)C(=N)N1 (single isomer, unassigned) [Example 25A]	84
CCC1(CC)CC(=O)N(C[C@H]2C(C)[C@@H]2C(=O)N[C@H]2CC(C)(C)Oc3ccccc32)C(=N)N1 (single isomer, unassigned) [Example 25B]	25
CCC1(CC)CC(=O)N(C[C@H]2C(C)[C@@H]2C(=O)N[C@H]2c3ccccc3CC2(C)O)C(=N)N1 (single isomer, unassigned) [Example 29A]	203
CCC1(CC)CC(=O)N(C[C@H]2C(C)[C@@H]2C(=O)N[C@H]2c3ccccc3CC2(C)O)C(=N)N1 (single isomer, unassigned) [Example 29B]	351
CCC1(CC)CC(=O)N(C[C@H]2C(C)[C@@H]2C(=O)N[C@H]2c3ccccc3CC2(C)O)C(=N)N1 (single isomer, unassigned) [Example 29C]	113
CCC1(CC)CC(=O)N(C[C@H]2C(C)[C@@H]2C(=O)N[C@@H]2c3ccccc3OC(C)(C)[C@H]2O)C(=N)N1 (single isomer, unassigned) [Example 30A]	45
CCC1(CC)CC(=O)N(C[C@H]2C(C)[C@@H]2C(=O)N[C@@H]2c3ccccc3OC(C)(C)[C@H]2O)C(=N)N1 (single isomer, unassigned) [Example 30B]	7.7
CCC1(CC)CC(=O)N(C[C@H]2C(C)[C@@H]2C(=O)N[C@@H]2c3ccccc3OCC2(C)O)C(=N)N1 (single isomer, unassigned) [Example 35A]	85
CCC1(CC)CC(=O)N(C[C@H]2C(C)[C@@H]2C(=O)N[C@@H]2c3ccccc3OCC2(C)O)C(=N)N1 (single isomer, unassigned) [Example 35B]	220
CC1[C@H](C(c2cccnc2)N2C(=N)NC(C)(C)CC2=O)[C@H]1C(=O)N[C@H]1C[C@H](C(F)(F)F)Oc2ccccc21 (single isomer, unassigned) [Example 54A]	1
CC1[C@H](C(c2cccnc2)N2C(=N)NC(C)(C)CC2=O)[C@H]1C(=O)N[C@H]1C[C@H](C(F)(F)F)Oc2ccccc21 (single isomer, unassigned) [Example 54B]	130
CCC1(CC)CC(=O)N(C(c2cccnc2)[C@H]2C(C)[C@@H]2C(=O)N[C@H]2C[C@H](C(F)(F)F)Oc3ccccc32)C(=N)N1 (single isomer, unassigned) [Example 55A]	0.8
CCC1(CC)CC(=O)N(C(c2cccnc2)[C@H]2C(C)[C@@H]2C(=O)N[C@H]2C[C@H](C(F)(F)F)Oc3ccccc32)C(=N)N1 (single isomer, unassigned) [Example 55B]	180
CCC1(C)CC(NC(=O)[C@H]2C[C@@H]2[C@@H](CCOC)N2C(=N)NC(C)(C)CC2=O)c2ccccc2O1 (single isomer, unassigned) [Example 75B]	7.5
CCC1(C)CC(NC(=O)[C@H]2C[C@@H]2[C@@H](CCOC)N2C(=N)NC(C)(C)CC2=O)c2ccccc2O1 (single isomer, unassigned) [Example 75C]	7
CCC1(C)CC(NC(=O)[C@H]2C[C@@H]2[C@@H](CCOC)N2C(=N)NC(C)(C)CC2=O)c2ccccc2O1 (single isomer, unassigned) [Example 75D]	7
CC(C)C1(C)CC(NC(=O)[C@H]2C[C@@H]2CN2C(=N)NC(C)(C)CC2=O)c2ccccc2O1 (single isomer, unassigned) [Example 79B]	275
